From patent US11725011B2, “Bicyclic urea kinase inhibitors and uses thereof” (The Broad Institute, Inc., priority 2016, dated 2023)

Legend:
MST3 = MST3 (Homo sapiens (Human), UniProt Q9Y6E0); assay: KINOMEscan; format: binding; conditions: 1 uM
FGR = FGR (Homo sapiens (Human), UniProt P09769); assay: KINOMEscan; format: binding; conditions: 1 uM
BMX = BMX (Homo sapiens (Human), UniProt P51813); assay: KINOMEscan; format: binding; conditions: 1 uM
FLT3 (K663Q) = FLT3 (K663Q) (Homo sapiens (Human), UniProt P36888, K663Q); assay: KINOMEscan; format: binding; conditions: 1 uM
MYO3A = MYO3A (Homo sapiens (Human), UniProt Q8NEV4); assay: KINOMEscan; format: binding; conditions: 1 uM
HIPK3 = HIPK3 (Homo sapiens (Human), UniProt Q9H422); assay: KINOMEscan; format: binding; conditions: 1 uM
PIK4CB = PIK4CB (Homo sapiens (Human), UniProt Q9UBF8); assay: KINOMEscan; format: binding; conditions: 1 uM
MTOR = MTOR (Homo sapiens (Human), UniProt P42345); assay: KINOMEscan; format: binding; conditions: 1 uM
[1] = qAC50 biological assay (Table 4)
MST2 = MST2 (Homo sapiens (Human), UniProt Q13188); assay: KINOMEscan; format: binding; conditions: 1 uM
EPHA3 = EPHA3 (Homo sapiens (Human), UniProt P29320); assay: KINOMEscan; format: binding; conditions: 1 uM
AMPK-alpha1 = AMPK-alpha1 (Homo sapiens (Human), UniProt Q13131); assay: KINOMEscan; format: binding; conditions: 1 uM
NEK4 = NEK4 (Homo sapiens (Human), UniProt P51957); assay: KINOMEscan; format: binding; conditions: 1 uM
MEK5 = MEK5 (Homo sapiens (Human), UniProt Q13163); assay: KINOMEscan; format: binding; conditions: 1 uM
MEK3 = MEK3 (Homo sapiens (Human), UniProt P46734); assay: KINOMEscan; format: binding; conditions: 1 uM
[2] = biological target: JAK3 (JH1domain-catalytic) (Homo sapiens (Human), UniProt P52333); assay: KINOMEscan; format: binding; conditions: 1 uM
PIK3CA (E542K) = PIK3CA (E542K) (Homo sapiens (Human), UniProt P42336, E542K); assay: KINOMEscan; format: binding; conditions: 1 uM
CDK5 = CDK5 (Homo sapiens (Human), UniProt Q00535); assay: KINOMEscan; format: binding; conditions: 1 uM
FGFR1 = FGFR1 (Homo sapiens (Human), UniProt P11362); assay: KINOMEscan; format: binding; conditions: 1 uM
NEK11 = NEK11 (Homo sapiens (Human), UniProt Q8NG66); assay: KINOMEscan; format: binding; conditions: 1 uM
PIP5K2B = PIP5K2B (Homo sapiens (Human), UniProt P78356); assay: KINOMEscan; format: binding; conditions: 1 uM
[3] = biological target: ABL1 (T315I)-nonphosphorylated (Homo sapiens (Human), UniProt P00519, T315I); assay: KINOMEscan; format: binding; conditions: 1 uM
RET = RET (Homo sapiens (Human), UniProt P07949); assay: KINOMEscan; format: binding; conditions: 1 uM
TLK1 = TLK1 (Homo sapiens (Human), UniProt Q9UKI8); assay: KINOMEscan; format: binding; conditions: 1 uM
EPHB2 = EPHB2 (Homo sapiens (Human), UniProt P29323); assay: KINOMEscan; format: binding; conditions: 1 uM
LRRK2 = LRRK2 (Homo sapiens (Human), UniProt Q5S007); assay: KINOMEscan; format: binding; conditions: 1 uM
ERK8 = ERK8 (Homo sapiens (Human), UniProt Q8TD08); assay: KINOMEscan; format: binding; conditions: 1 uM
KIT (A829P) = KIT (A829P) (Homo sapiens (Human), UniProt P10721, A829P); assay: KINOMEscan; format: binding; conditions: 1 uM
NEK3 = NEK3 (Homo sapiens (Human), UniProt P51956); assay: KINOMEscan; format: binding; conditions: 1 uM
TNK2 = TNK2 (Homo sapiens (Human), UniProt Q07912); assay: KINOMEscan; format: binding; conditions: 1 uM
MLK1 = MLK1 (Homo sapiens (Human), UniProt P80192); assay: KINOMEscan; format: binding; conditions: 1 uM
EPHA2 = EPHA2 (Homo sapiens (Human), UniProt P29317); assay: KINOMEscan; format: binding; conditions: 1 uM
BUB1 = BUB1 (Homo sapiens (Human), UniProt O43683); assay: KINOMEscan; format: binding; conditions: 1 uM
TNIK = TNIK (Homo sapiens (Human), UniProt Q9UKE5); assay: KINOMEscan; format: binding; conditions: 1 uM
PRKG1 = PRKG1 (Homo sapiens (Human), UniProt Q13976); assay: KINOMEscan; format: binding; conditions: 1 uM
PCTK2 = PCTK2 (Homo sapiens (Human), UniProt Q00537); assay: KINOMEscan; format: binding; conditions: 1 uM
NEK7 = NEK7 (Homo sapiens (Human), UniProt Q8TDX7); assay: KINOMEscan; format: binding; conditions: 1 uM
FLT4 = FLT4 (Homo sapiens (Human), UniProt P35916); assay: KINOMEscan; format: binding; conditions: 1 uM
GSK3B = GSK3B (Homo sapiens (Human), UniProt P49841); assay: KINOMEscan; format: binding; conditions: 1 uM
HIPK4 = HIPK4 (Homo sapiens (Human), UniProt Q8NE63); assay: KINOMEscan; format: binding; conditions: 1 uM
[4] = biological target: ABL1 (E255K)-phosphorylated (Homo sapiens (Human), UniProt P00519, E255K); assay: KINOMEscan; format: binding; conditions: 1 uM

Chain of PIK3CA (E542K) (P42336 whole entry E542K): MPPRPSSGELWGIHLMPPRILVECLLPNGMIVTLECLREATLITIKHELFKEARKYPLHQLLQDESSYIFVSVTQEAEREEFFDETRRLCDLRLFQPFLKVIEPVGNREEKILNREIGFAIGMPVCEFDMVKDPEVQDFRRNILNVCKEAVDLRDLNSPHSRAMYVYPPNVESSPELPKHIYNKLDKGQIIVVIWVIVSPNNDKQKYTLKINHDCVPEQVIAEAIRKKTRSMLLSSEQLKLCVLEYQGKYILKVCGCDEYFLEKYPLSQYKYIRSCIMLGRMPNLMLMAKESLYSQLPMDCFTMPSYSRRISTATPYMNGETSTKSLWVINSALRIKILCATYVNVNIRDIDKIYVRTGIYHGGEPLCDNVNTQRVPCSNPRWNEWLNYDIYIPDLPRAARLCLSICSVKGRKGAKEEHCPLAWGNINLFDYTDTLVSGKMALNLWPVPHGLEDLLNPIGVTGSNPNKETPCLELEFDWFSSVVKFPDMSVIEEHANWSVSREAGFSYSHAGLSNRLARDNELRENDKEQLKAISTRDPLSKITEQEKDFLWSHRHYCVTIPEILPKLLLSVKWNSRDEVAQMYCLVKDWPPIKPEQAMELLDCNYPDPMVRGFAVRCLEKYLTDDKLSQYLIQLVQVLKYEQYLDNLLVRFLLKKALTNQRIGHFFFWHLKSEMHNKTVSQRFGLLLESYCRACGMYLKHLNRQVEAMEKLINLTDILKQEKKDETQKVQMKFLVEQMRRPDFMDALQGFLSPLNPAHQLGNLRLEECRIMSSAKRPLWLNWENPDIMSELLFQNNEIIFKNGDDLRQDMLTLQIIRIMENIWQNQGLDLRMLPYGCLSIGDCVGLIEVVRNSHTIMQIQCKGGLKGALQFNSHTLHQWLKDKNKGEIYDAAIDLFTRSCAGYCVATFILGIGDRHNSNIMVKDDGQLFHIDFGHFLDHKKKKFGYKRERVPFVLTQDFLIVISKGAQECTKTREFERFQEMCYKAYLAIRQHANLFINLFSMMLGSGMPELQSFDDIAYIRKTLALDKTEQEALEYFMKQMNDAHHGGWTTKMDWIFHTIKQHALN
Chain of PCTK2 (Q00537 whole entry): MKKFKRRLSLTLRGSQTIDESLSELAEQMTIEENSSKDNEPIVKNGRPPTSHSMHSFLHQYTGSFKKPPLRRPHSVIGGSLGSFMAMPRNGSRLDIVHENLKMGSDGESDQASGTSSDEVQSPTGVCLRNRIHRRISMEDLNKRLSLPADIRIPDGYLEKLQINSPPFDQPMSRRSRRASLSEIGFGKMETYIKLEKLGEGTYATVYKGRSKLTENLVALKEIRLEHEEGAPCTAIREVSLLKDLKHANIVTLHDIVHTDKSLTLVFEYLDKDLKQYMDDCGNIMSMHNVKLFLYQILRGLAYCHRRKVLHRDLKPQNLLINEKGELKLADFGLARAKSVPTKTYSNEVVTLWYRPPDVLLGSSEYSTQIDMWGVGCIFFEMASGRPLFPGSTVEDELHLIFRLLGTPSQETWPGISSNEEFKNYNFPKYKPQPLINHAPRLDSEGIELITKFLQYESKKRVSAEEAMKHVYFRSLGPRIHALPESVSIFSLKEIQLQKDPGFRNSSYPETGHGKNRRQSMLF
Chain of BMX (P51813 whole entry): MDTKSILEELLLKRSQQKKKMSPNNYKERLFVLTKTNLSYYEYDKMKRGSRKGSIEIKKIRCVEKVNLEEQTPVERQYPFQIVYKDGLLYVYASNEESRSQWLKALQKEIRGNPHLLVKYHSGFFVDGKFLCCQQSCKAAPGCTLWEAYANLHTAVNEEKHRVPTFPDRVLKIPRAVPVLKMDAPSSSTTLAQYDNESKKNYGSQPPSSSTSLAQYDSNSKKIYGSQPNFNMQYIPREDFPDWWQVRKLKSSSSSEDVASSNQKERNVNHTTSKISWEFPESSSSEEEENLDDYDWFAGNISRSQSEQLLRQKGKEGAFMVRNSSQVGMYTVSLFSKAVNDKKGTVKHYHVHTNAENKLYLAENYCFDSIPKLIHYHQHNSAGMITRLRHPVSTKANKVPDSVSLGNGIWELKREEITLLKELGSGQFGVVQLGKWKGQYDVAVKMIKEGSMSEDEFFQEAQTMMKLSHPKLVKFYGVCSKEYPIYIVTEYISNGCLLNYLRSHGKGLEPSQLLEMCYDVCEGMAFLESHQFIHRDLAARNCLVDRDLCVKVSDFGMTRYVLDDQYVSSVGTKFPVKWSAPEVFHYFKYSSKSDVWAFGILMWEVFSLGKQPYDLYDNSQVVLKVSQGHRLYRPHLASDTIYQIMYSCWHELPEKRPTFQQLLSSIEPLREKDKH
Chain of HIPK3 (Q9H422 whole entry): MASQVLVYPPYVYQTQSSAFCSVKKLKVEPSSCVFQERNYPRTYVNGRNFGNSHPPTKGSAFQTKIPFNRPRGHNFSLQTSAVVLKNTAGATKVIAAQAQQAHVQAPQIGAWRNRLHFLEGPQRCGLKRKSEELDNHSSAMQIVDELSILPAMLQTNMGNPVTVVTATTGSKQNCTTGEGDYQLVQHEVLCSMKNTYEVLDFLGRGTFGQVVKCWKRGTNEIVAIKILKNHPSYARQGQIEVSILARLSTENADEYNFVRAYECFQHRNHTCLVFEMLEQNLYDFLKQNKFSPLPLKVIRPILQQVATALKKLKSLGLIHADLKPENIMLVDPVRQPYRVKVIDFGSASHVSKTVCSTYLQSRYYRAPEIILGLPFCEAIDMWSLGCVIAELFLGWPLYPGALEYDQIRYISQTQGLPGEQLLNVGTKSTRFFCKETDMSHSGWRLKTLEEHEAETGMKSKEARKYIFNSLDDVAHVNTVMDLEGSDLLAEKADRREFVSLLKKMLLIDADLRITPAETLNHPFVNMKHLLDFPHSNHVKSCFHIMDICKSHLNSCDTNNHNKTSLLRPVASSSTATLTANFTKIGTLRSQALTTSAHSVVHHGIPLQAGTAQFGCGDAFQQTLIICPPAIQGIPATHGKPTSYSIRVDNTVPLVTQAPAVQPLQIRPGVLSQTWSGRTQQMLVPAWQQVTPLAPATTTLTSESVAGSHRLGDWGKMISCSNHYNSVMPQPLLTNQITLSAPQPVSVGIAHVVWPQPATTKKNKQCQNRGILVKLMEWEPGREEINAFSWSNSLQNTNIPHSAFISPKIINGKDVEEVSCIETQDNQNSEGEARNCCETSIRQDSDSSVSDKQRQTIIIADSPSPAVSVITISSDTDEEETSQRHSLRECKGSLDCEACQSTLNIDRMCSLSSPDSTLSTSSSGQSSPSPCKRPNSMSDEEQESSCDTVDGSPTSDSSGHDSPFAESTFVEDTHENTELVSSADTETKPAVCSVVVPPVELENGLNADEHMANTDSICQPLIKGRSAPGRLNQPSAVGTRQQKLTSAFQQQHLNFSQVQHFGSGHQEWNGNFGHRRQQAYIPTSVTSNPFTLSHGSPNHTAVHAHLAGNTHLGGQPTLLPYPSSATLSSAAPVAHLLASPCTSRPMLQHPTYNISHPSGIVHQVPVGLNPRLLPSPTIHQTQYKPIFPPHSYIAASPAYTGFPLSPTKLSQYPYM
Chain of NEK7 (Q8TDX7 whole entry): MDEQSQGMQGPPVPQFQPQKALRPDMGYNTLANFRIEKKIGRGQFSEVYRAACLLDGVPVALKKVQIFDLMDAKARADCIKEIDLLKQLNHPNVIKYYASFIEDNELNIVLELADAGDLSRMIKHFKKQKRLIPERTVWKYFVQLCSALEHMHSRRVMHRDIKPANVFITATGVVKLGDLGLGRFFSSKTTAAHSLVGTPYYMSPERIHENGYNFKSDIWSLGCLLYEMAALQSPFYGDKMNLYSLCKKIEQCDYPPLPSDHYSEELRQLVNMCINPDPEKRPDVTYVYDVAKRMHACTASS
Chain of BUB1 (O43683 whole entry): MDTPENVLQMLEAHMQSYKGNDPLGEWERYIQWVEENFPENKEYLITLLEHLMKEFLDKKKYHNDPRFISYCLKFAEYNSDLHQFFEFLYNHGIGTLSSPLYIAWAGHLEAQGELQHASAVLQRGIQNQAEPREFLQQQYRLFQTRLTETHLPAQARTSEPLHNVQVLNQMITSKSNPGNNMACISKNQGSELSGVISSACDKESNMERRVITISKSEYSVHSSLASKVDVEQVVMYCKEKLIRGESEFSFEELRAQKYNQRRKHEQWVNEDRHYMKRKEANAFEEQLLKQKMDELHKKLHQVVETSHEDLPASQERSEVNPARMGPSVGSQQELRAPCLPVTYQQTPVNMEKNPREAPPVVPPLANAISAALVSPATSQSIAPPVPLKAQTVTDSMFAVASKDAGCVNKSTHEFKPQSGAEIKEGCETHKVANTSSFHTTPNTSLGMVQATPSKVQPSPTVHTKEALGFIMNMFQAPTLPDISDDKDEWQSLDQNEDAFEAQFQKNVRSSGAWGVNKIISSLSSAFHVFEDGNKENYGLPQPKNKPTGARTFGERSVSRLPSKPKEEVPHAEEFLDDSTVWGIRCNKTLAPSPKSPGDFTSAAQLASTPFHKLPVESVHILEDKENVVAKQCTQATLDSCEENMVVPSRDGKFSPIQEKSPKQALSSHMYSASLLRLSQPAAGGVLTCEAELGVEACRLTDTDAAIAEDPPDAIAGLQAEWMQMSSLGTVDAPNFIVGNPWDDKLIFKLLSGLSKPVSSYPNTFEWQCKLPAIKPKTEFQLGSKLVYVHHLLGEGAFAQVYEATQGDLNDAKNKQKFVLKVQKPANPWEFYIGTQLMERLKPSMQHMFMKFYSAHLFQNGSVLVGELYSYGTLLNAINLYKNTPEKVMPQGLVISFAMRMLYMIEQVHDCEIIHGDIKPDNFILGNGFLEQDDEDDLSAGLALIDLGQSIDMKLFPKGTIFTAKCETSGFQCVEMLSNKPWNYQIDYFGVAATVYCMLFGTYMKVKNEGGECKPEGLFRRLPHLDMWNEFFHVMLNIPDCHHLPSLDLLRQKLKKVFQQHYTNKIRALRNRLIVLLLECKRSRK

COc1ccc(N2C(=O)N(c3c(C)cccc3C)Cc3cnc(Nc4ccc(N5CCN(C)CC5)cc4)nc32)c(OC)c1 [HG-11-136-01]
KINOMEscan MST3 (MST3): 4.6
KINOMEscan FGR (FGR): 0
KINOMEscan BMX (BMX): 3
KINOMEscan FLT3 (K663Q) (FLT3 (K663Q)): 31
KINOMEscan MYO3A (MYO3A): 40
KINOMEscan HIPK3 (HIPK3): 2.6
KINOMEscan PIK4CB (PIK4CB): 63
KINOMEscan MTOR (MTOR): 83
qAC50 [1]: 171 nM
Data Mode ([1]; curve direction of qAC50 data): decreasing
KINOMEscan MST2 (MST2): 0.75
KINOMEscan EPHA3 (EPHA3): 0.8
KINOMEscan AMPK-alpha1 (AMPK-alpha1): 33
KINOMEscan NEK4 (NEK4): 100
KINOMEscan MEK5 (MEK5): 0.1
KINOMEscan MEK3 (MEK3): 6.4
KINOMEscan JAK3 (JH1domain-catalytic) [2]: 0
KINOMEscan PIK3CA (E542K) (PIK3CA (E542K)): 88
KINOMEscan CDK5 (CDK5): 100
KINOMEscan FGFR1 (FGFR1): 0.15
KINOMEscan NEK11 (NEK11): 21
KINOMEscan PIP5K2B (PIP5K2B): 27
KINOMEscan ABL1 (T315I)-nonphosphorylated [3]: 0
KINOMEscan RET (RET): 0
KINOMEscan TLK1 (TLK1): 76
KINOMEscan EPHB2 (EPHB2): 0
KINOMEscan LRRK2 (LRRK2): 21
KINOMEscan ERK8 (ERK8): 88
KINOMEscan KIT (A829P) (KIT (A829P)): 3.6
KINOMEscan NEK3 (NEK3): 39
KINOMEscan TNK2 (TNK2): 0.15
KINOMEscan MLK1 (MLK1): 6
KINOMEscan EPHA2 (EPHA2): 0.6
KINOMEscan BUB1 (BUB1): 100
KINOMEscan TNIK (TNIK): 2.8
KINOMEscan PRKG1 (PRKG1): 100
KINOMEscan PCTK2 (PCTK2): 91
KINOMEscan NEK7 (NEK7): 100
KINOMEscan FLT4 (FLT4): 6.6
KINOMEscan GSK3B (GSK3B): 100
KINOMEscan HIPK4 (HIPK4): 51
KINOMEscan ABL1 (E255K)-phosphorylated [4]: 0.4
